# Measurements reported in US20240067673A1, “MODIFIED NUCLEOSIDE OR NUCLEOTIDE” (BIG SHENZHEN, priority 2020, published 2024).
# Tested on: DNA nanospheres prepared by using E. coli sequencing library
# Test: Evaluation of blocking effect (incorporation and cleavage efficiency) on MGISEQ2000 sequencer
# Assay type: biochemical
# Details: for Cleavage efficiency (EC): ratio of Cleavage efficiency values for testing nucleotide and comparative nucleotide, thpp reagent, 65° C. 1 min, dTTP analogue; for Incorporation efficiency (EI): ratio of Incorporation efficiency values for testing nucleotide and comparative nucleotide (standard cold dNTP), dTTP analogue as cold dNTP
# Procedure: 1. Evaluation of Blocking Effect
# For each test, only one of the nucleotide analogues cold dNTP of the invention (dTTP, dATP, dCTP, and dGTP) was used. For ease of presentation, only testing results for dTTP were provided in the following table 1 for each kind of 3′-OH modification.
# Sequencing was conducted according to the operation protocol of MGISEQ2000 sequencer, using the above nucleotide substrates and MGISEQ-2000RS high-throughput sequencing kit (FCL SE50).
# (1) Preparing DNA nanospheres by using E. coli sequencing library;
# (2) Loading DNA nanospheres onto the MGISEQ2000 sequencing chip;
# (3) Amounting the loaded sequencing chip onto the MGISEQ2000 sequencer and set the sequencing process;
# (4) Performing Test Round 1: incorporating standard hot dNTP, taking photos for recording signal value, and then cleaving the blocking group with thpp reagent, 65° C. 1 min.
# (5) Performing Test Round 2: incorporating standard cold dNTP, then incorporating standard hot dNTP, taking photos for recording signal value, and then cleaving blocking group with thpp reagent, 65° C. 1 min.
# (6) Performing Test Round 3: incorporating standard hot dNTP, taking photos for recording signal value, and then cleaving blocking group with thpp reagent, 65° C. 1 min.
# (7) Performing Test Round 4: incorporating nucleotide analogues cold dNTP of the invention (only one kind of cold dNTP incorporated for each test), then incorporating standard hot dNTP, taking photos for recording signal value, and then cleaving blocking group with thpp reagent, 65° C. 1 min.
# (8) Performing Test Round 5: incorporating standard hot dNTP, taking photos for recording signal value.
# (9) Evaluating Incorporation efficiency and Cleavage efficiency.
# Equation for Calculating Incorporation Efficiency: […]
# wherein: • EI (Incorporation efficiency) is the ratio of Incorporation efficiency values for testing nucleotide and comparative nucleotide; • C1 is signal value of Test Round 1; • C2 is signal value of Test Round 2; • C3 is signal value of Test Round 3; • C4 is signal value of Test Round 4;
# Equation for Calculating Cleavage Efficiency: […]
# wherein: • Ec (Cleavage efficiency) is the ratio of Cleavage efficiency values for testing nucleotide and comparative nucleotide; • EI is the ratio of Incorporation efficiency values for testing nucleotide and comparative nucleotide; • C3 is signal value of Test Round 3; • C5 is signal value of Test Round 5; • CGT is the signals of base C, base G and base T in Test Round 3.
SMILES,Cleavage efficiency (EC),Incorporation efficiency (EI)
Cc1cn([C@H]2CC(OC(=O)CCCN=[N+]=[N-])[C@@H](COP(=O)(O)OP(=O)(O)OP(=O)(O)O)O2)c(=O)[nH]c1=O (stereo partly shown),36%,95%
Cc1cn([C@H]2CC(OC(=O)c3occc3CN=[N+]=[N-])[C@@H](COP(=O)(O)OP(=O)(O)OP(=O)(O)O)O2)c(=O)[nH]c1=O (stereo partly shown),5%,101%
Cc1cn([C@H]2CC(OC(=O)c3ccccc3C(C)N=[N+]=[N-])[C@@H](COP(=O)(O)OP(=O)(O)OP(=O)(O)O)O2)c(=O)[nH]c1=O (stereo partly shown),105%,101%
CCSSC(C)c1ccccc1C(=O)OC1C[C@H](n2cc(C)c(=O)[nH]c2=O)O[C@@H]1COP(=O)(O)OP(=O)(O)OP(=O)(O)O (stereo partly shown),110%,100%
Cc1cn([C@H]2CC(OC(=O)c3cccnc3C(C)N=[N+]=[N-])[C@@H](COP(=O)(O)OP(=O)(O)OP(=O)(O)O)O2)c(=O)[nH]c1=O (stereo partly shown),115%,100%
Cc1cn([C@H]2CC(OC(=O)c3ccc([N+](=O)[O-])cc3CN=[N+]=[N-])[C@@H](COP(=O)(O)OP(=O)(O)OP(=O)(O)O)O2)c(=O)[nH]c1=O (stereo partly shown),112%,101%
Cc1cn([C@H]2CC(OC(=O)c3ccccc3CN=[N+]=[N-])[C@@H](COP(=O)(O)OP(=O)(O)OP(=O)(O)O)O2)c(=O)[nH]c1=O (stereo partly shown),91%,98%
COc1ccc(C(=O)OC2C[C@H](n3cc(C)c(=O)[nH]c3=O)O[C@@H]2COP(=O)(O)OP(=O)(O)OP(=O)(O)O)c(C(C)N=[N+]=[N-])c1 (stereo partly shown),98%,101%
Cc1cn([C@H]2CC(OC(=O)c3cccnc3C(C)(C)N=[N+]=[N-])[C@@H](COP(=O)(O)OP(=O)(O)OP(=O)(O)O)O2)c(=O)[nH]c1=O (stereo partly shown),110%,95%
Cc1cn([C@H]2CC(OC(=O)Cc3ccccc3CN=[N+]=[N-])[C@@H](COP(=O)(O)OP(=O)(O)OP(=O)(O)O)O2)c(=O)[nH]c1=O (stereo partly shown),89%,95%
Cc1cn([C@H]2CC(OC(=O)Cc3ccccc3C(C)N=[N+]=[N-])[C@@H](COP(=O)(O)OP(=O)(O)OP(=O)(O)O)O2)c(=O)[nH]c1=O (stereo partly shown),91%,98%
Cc1cn([C@H]2CC(OC(=O)c3ccccc3CCN=[N+]=[N-])[C@@H](COP(=O)(O)OP(=O)(O)OP(=O)(O)O)O2)c(=O)[nH]c1=O (stereo partly shown),Incorporation efficiency (EI) 100% Cleavage efficiency (EC) 100%,Incorporation efficiency (EI) 100% Cleavage efficiency (EC) 100%
CSSC(C)c1ccccc1C(=O)OC1C[C@H](n2cc(C)c(=O)[nH]c2=O)O[C@@H]1COP(=O)(O)OP(=O)(O)OP(=O)(O)O (stereo partly shown),111%,100%
Cc1cn([C@H]2CC(OC(=O)c3ccccc3C(C)SSCC(C)C)[C@@H](COP(=O)(O)OP(=O)(O)OP(=O)(O)O)O2)c(=O)[nH]c1=O (stereo partly shown),98%,90%
Cc1cn([C@H]2CC(OC(=O)c3ccccc3C(C)SSC(C)C)[C@@H](COP(=O)(O)OP(=O)(O)OP(=O)(O)O)O2)c(=O)[nH]c1=O (stereo partly shown),103%,95%
CSSC(C)c1cc(NC(C)=O)ccc1C(=O)OC1C[C@H](n2cc(C)c(=O)[nH]c2=O)O[C@@H]1COP(=O)(O)OP(=O)(O)OP(=O)(O)O (stereo partly shown),98%,100%
COc1ccc(C(=O)OC2C[C@H](n3ccc(N)nc3=O)O[C@@H]2COP(=O)(O)OP(=O)(O)OP(=O)(O)O)c(C(C)SSC)c1 (stereo partly shown),101%,104%
